Series [1] is described as follows: Ototoxicity against C57BL/6 mouse cochlea hair cells assessed as reduction in cell viability at 0.1 mM incubated for 23 hrs by FITC-phalloidin staining-based assay. The format is toxicity. The note with it: read-out: INH.
Series [2] can be described thus: Nephrotoxicity in human patients assessed as proportion of patients with higher serum creatinine level. The note with it: in vivo. The class given is toxicity.

With `NC[C@@H]1O[C@H](O[C@H]2[C@@H](O)[C@H](O[C@@H]3[C@@H](O)[C@H](N)C[C@H](N)[C@H]3O[C@H]3O[C@H](CN)[C@@H](O)[C@H](O)[C@H]3N)O[C@@H]2CO)[C@H](N)[C@@H](O)[C@@H]1O` [FRAMYCETIN], the cytotoxicity at 23 h, 100 µM in series [1] was determined as 20%.

As for `NC[C@@H]1O[C@H](O[C@H]2[C@@H](O)[C@H](O[C@@H]3[C@@H](O)[C@H](N)C[C@H](N)[C@H]3O[C@H]3O[C@H](CO)[C@@H](O)[C@H](O)[C@H]3N)O[C@@H]2CO)[C@H](N)[C@@H](O)[C@@H]1O` [PAROMOMYCIN], in series [1], the cytotoxicity at 23 h, 100 µM was found to be 4%.

As to `CN[C@@H]1[C@@H](O)[C@@H](O[C@@H]2[C@@H](O)[C@H](O[C@H]3OC(CNCCO)=CC[C@H]3N)[C@@H](N)C[C@H]2NC(=O)[C@@H](O)CCN)OC[C@]1(C)O` [PLAZOMICIN], in series [2], the Activity is given as 7%.
